Results reported in US20230414610A1, “THERAPIES FOR CANCER USING SMALL MOLECULES THAT BIND TO AND INHIBIT RAIL INTERACTING PROTEINS” (Texas Tech University System, priority 2020, published 2023).

tested on: breast cancer cells; assay: Breast cancer cell inhibition in vitro; assay type: cell-based; details: by inhibiting RLIP

Compound | killing of breast cancer cells
O=C(N/N=C1/c2ccccc2-c2nc3nonc3nc21)c1ccccc1O [TTUHSC-SS-A4] | kill breast cancer cells at low concentrations
[H]/N=C(\N)Nc1nc(-c2ccccc2)c2cc(F)ccc2n1 [TTUHSC-SS-B9] | kill breast cancer cells at low concentrations
O=c1cc(COc2cccc(-n3cnnn3)c2)c2ccccc2[nH]1 [TTUHSC-SS-C2] | kill breast cancer cells at low concentrations
c1ccc(-c2nnc(NCc3nc4ccccc4[nH]3)c3ccccc23)cc1 [TTUHSC-SS-C4] | kill breast cancer cells at low concentrations
N#Cc1nc(-c2ccccn2)c2c(c1-c1ccccc1)CCC2 [TTUHSC-SS-E4] | kill breast cancer cells at low concentrations
